Source: patent US4921865A, “Aminoacylates of glycerol acetal” (Societe de Conseils de Recherches et d'Applications …, priority 1987, dated 1990)

Columns and labels:
[1] = tested on: PAF-induced thrombocytopenia; assay: PAF-induced thrombocytopenia in the guinea pig; assay type: in vivo; conditions: for Percentage Variation (thrombocytopenia): vs control; for Percentage Decrease in leukocyte number: thrombocytopenia
Description: (§1) Male Guinea-pig (400-500 g) were anesthetized with urethane (1.5 g/kg: IP) prior to be tracheotomized and ventilated with a respiratory pump (UGO BASILE) (70-80 breath/minute, 1 ml air/100 g/breath) to abolish spontaneous respiration a pneumothorax was performed. The resistance to inflation was measured with a pressure transducer (UGO BASILE) against an initial pressure of 10 cm H2 O according to Konzett and Rossler. Animals were allocated into groups and were treated or not by the compounds of the invention (0.05, 0.1, 0.5, 1 and 5 mg/kg).The products were given IV 1 hour before challenge with PAF.
(§2) The animals were challenged with various doses of PAF ([…]) given intravenously, and the variations in the resistance to inflation were recorded.
(§3) Blood samples were collected prior to and 1,5 and 10 minutes following to PAF-challenge. Forty μl of blood were diluted in 10 ml isoton (Coultronics, France); erythrocytes were lysed with Zapoglobin (France) prior leukocytes were counted in a coulter counter. To determine platelet number, 40 μl of blood were diluted in 2 ml isoton and centrifuged at 100 runs per minute for 30 secondes, 100 μl of the supernatant were collected and further diluted in 10 ml isoton prior counting in a coulter counter.

[2] = tested on: PAF-induced [Ca^2+ ]i mobilization, washed rabbits platelets; assay: inhibition of intracytosolic free calcium mobilization induced by PAF in washed rabbit platelets; assay type: cell-based; conditions: PAF 2×10^-9 M
Description: Blood was taken from the auricular artery of the rabbit on citric acid/sodium citrate/dextrose and anticoagulan and the washed platelets were prepared according to Ardlie et al., Brit. J. Pharmacology, 19, 7-17, 1970. They were incubated with acetylsalicylic salt (100 μM, 30 minutes) to avoid thromboxane induced aggregation. They were then loaded with the fluorescent calcium indicator dye quin 2 by incubation with quin 2 aceto-methylester (15 μM in DMSO, 20 minutes at room temperature) which penetrates the cell membrane and after hydrolysed is trapped in the platelet. Drugs were preincubated with platelets for 15 minutes simultaneously to CP/CPK mixture which destroys secreted ADP.
Fluorescent measurement was then performed (excitation λ=339 nm, emission λ=494 nm) after PAF addition to platelet suspension. The fluorescence intensity is proportional to the cytosolic free calcium level [Ca^2+ ]i which can be quantified as described by Tsien et al., J. Cell Biol., 94, 325-334, 1982.

[3] = tested on: polymorphonuclear leukocytes (PMNs); assay: antagonism of polymorphonuclear leukocyte aggregation induced by PAF; assay type: cell-based, rat (Wistar); conditions: rat PMNs, PAF 10^-8
Description: Polymorphonuclear leukocytes (PMNs) were obtained as described by A. W. Ford-Hutchinson et al. (Br - J. Pharmacol. 76, 367-371, 1982). Cell suspensions ([…]) were prepared from peritoneal exudates obtained after a 5 ml IP injection of sodium caseinate 12% (w/v) to male Wistar rats, 300 g body weight.
After centrifugation, cells were washed with Hanks and resuspended in MEM/Hepes 30 mM medium (PM=7.4) at a concentration of 10^7 cells/ml. Cytochalasin B (5 μg/ml) was added 10 minutes before trigering aggregation to amplify the PMNs aggregation. The light transmittance through the cell suspension (400 μl) was measured under a 900 R/mn magnetic stirring, with a dual beam aggregometer (Chronolog Corp. Coultronics.)
The control cuvet is the cell suspension diluted to 20% of the cell count with MEM and the difference represents 100% transmittance. Change in transmittance, which occurs when PAF is added, was continuously recorded.
Drugs solubilized in MEM/Hepes were added (4 μl) to PMNs suspension 2 minutes before PAF addition.

PAF-induced leukopenia = PAF-induced leukopenia in the guinea pig; assay type: in vivo; conditions: for Percentage Variation (leukopenia): vs control
Description: as §1, §2, §3

[4] = tested on: PAF-induced bronchoconstriction; assay: PAF-induced bronchoconstriction in the guinea pig; assay type: in vivo; conditions: for Percentage Variation (bronchoconstriction): vs control
Description: as §1, §2

[5] = pyridinium compound 0.5, 1 and 5 mg/kg IV, quinolinium compound 0.5 and 1 mg/kg IV

In the case of CCCCCCCCCCCCCCCCCC1(C)OCC(COC(=O)CCCCC[n+]2cccc3ccccc32)O1 (stereo not drawn) [Example 10, 2-heptadecyl 2-methyl 4-[6'-(N-quinolinium)hexanoyloxymethyl) 1,3-dioxolanbromide], the “Percentage Variation (thrombocytopenia)” value ([1]; 0.1 mg/kg IV, 1 mn) is reported as -21.7%, the “Percentage Variation (thrombocytopenia)” value ([1]; 0.1 mg/kg IV, 5 mn) is reported as 0% and the “Percentage Variation (thrombocytopenia)” value ([1]; 0.1 mg/kg IV, 10 mn) is reported as -7.2%. The “Percentage Variation (thrombocytopenia)” value ([1]; 0.5 mg/kg IV, 1 mn) was -59.9%, the “Percentage Variation (thrombocytopenia)” value ([1]; 0.5 mg/kg IV, 5 mn) was -39.3% and the “Percentage Variation (thrombocytopenia)” value ([1]; 0.5 mg/kg IV, 10 mn) was -33.8%. For the same compound, the “Percentage Variation (thrombocytopenia)” value ([1]; 1 mg/kg IV, 1 mn) was -58.3%, the “Percentage Variation (thrombocytopenia)” value ([1]; 1 mg/kg IV, 5 mn) was -55.0% and the “Percentage Variation (thrombocytopenia)” value ([1]; 1 mg/kg IV, 10 mn) was -60.0%. For the same compound, the “inhibition of PAF-induced thrombocytopenia (in words)” value [1, 5] was “inhibit”, the “Percentage Decrease in leukocyte number” value ([1]; 0.1 mg/kg IV, 1 mn) was 51.1 +/- 12.1% and the “Percentage Decrease in leukocyte number” value ([1]; 0.1 mg/kg IV, 5 mn) was 49.1 +/- 8.8%. For the same compound, the “Percentage Decrease in leukocyte number” value ([1]; 0.1 mg/kg IV, 10 mn) was 45.0 +/- 9.7%, the “Percentage Decrease in leukocyte number” value ([1]; 0.5 mg/kg IV, 1 mn) was 26.2 +/- 6.3% and the “Percentage Decrease in leukocyte number” value ([1]; 0.5 mg/kg IV, 5 mn) was 29.8 +/- 1.7%. The “Percentage Decrease in leukocyte number” value ([1]; 0.5 mg/kg IV, 10 mn) was 32.1 +/- 5.8%, the “Percentage Decrease in leukocyte number” value ([1]; 1 mg/kg IV, 1 mn) was 19.3 +/- 1.4% and the “Percentage Decrease in leukocyte number” value ([1]; 1 mg/kg IV, 5 mn) was 22.1 +/- 2.5%. The “Percentage Decrease in leukocyte number” value ([1]; 1 mg/kg IV, 10 mn) was 19.4 +/- 3.6%, the “inhibition of PAF-induced [Ca^2+ ]i mobilization (in words)” value ([2]; 5×10^-7 M) was “totally inhibit” and the inhibition at 0.05 µM ([2]; Oryctolagus cuniculus, Platelet, 5×10^-8 M, read-out: inhibition of PAF effect on [Ca^2+ ]i) was 75%. For the same compound, the IC50 ([3]; Leukocyte) was 1000 nM, the “inhibition of PMN aggregation (in words)” value [3] was “dose-dependently inhibit” and the “Percentage Decrease of leukocyte number” value (PAF-induced leukopenia; 0.1 mg/kg IV, 1 mn) was 38.8 +/- 6.3%. For the same compound, the “Percentage Variation (leukopenia)” value (PAF-induced leukopenia; 0.1 mg/kg IV, 1 mn) was “+6.3%”, the “Percentage Decrease of leukocyte number” value (PAF-induced leukopenia; 0.1 mg/kg IV, 5 mn) was 38.9 +/- 5.7% and the “Percentage Variation (leukopenia)” value (PAF-induced leukopenia; 0.1 mg/kg IV, 5 mn) was “+35.5%”. For the same compound, the “Percentage Decrease of leukocyte number” value (PAF-induced leukopenia; 0.1 mg/kg IV, 10 mn) was 41.2 +/- 6.5%, the “Percentage Variation (leukopenia)” value (PAF-induced leukopenia; 0.1 mg/kg IV, 10 mn) was “+53.2%” and the “Percentage Decrease of leukocyte number” value (PAF-induced leukopenia; 0.5 mg/kg IV, 1 mn) was 17.0 +/- 12.9%. The “Percentage Variation (leukopenia)” value (PAF-induced leukopenia; 0.5 mg/kg IV, 1 mn) was -58.9%, the “Percentage Decrease of leukocyte number” value (PAF-induced leukopenia; 0.5 mg/kg IV, 5 mn) was 9.0 +/- 11.8% and the “Percentage Variation (leukopenia)” value (PAF-induced leukopenia; 0.5 mg/kg IV, 5 mn) was -68.6%. For the same compound, the “Percentage Decrease of leukocyte number” value (PAF-induced leukopenia; 0.5 mg/kg IV, 10 mn) was -7.6 +/- 17.5%, the “Percentage Variation (leukopenia)” value (PAF-induced leukopenia; 0.5 mg/kg IV, 10 mn) was “+128.3%” and the “Percentage Decrease of leukocyte number” value (PAF-induced leukopenia; 1 mg/kg IV, 1 mn) was 24.1 +/- 6.8%. The “Percentage Variation (leukopenia)” value (PAF-induced leukopenia; 1 mg/kg IV, 1 mn) was -41.0%, the “Percentage Decrease of leukocyte number” value (PAF-induced leukopenia; 1 mg/kg IV, 5 mn) was 9.3 +/- 9.4% and the “Percentage Variation (leukopenia)” value (PAF-induced leukopenia; 1 mg/kg IV, 5 mn) was -67.6%. The “Percentage Decrease of leukocyte number” value (PAF-induced leukopenia; 1 mg/kg IV, 10 mn) was 8.9 +/- 13.2%, the “Percentage Variation (leukopenia)” value (PAF-induced leukopenia; 1 mg/kg IV, 10 mn) was -66.9% and the “Percentage Bronchoconstriction” value ([4]; 0.1 mg/kg IV) was 80.4 +/- 13.78%. For the same compound, the “Percentage Variation (bronchoconstriction)” value ([4]; 0.1 mg/kg IV) was -11.5%, the “Percentage Bronchoconstriction” value ([4]; 0.5 mg/kg IV) was 25.1 +/- 6.53% and the “Percentage Variation (bronchoconstriction)” value ([4]; 0.5 mg/kg IV) was -72.4%. The “Percentage Bronchoconstriction” value ([4]; 1 mg/kg IV) was 8.1 +/- 2.91%, the “Percentage Variation (bronchoconstriction)” value ([4]; 1 mg/kg IV) was -91.1% and the “inhibition of PAF-induced bronchoconstriction (in words)” value [4, 5] was “inhibit”.
